Legend:
uterine proliferation = assay: Uterine proliferation in nude mice, 28 days subcutaneous osmotic pump; assay type: in vivo, CD-1/Nude female mice; conditions: subcutaneous Alzet pump, 2 mg/200 μL for 6, 360 μg/200 μL for estradiol
Procedure: (§1) The effects of 6 were tested in vivo on breast cancer tumor formation and uterine proliferation. CD-1/Nude female mice, 40-50 days old at time of grafting were selected. Each mouse received 2 grafts per kidney, 4 grafts total with MCF-7 breast cancer cells in 25 μL collagen per graft. Compound 6 was delivered subcutaneously with a Alzet Osmotic pump filled with 200 μL of 6 for 28 days. […] At the end of 28 days of treatment, all grafts and uteri were isolated, pictures taken, weighed, and fixed in formalin.

ERβ [1] = target: T1, ERβ (Homo sapiens, UniProt Q92731); assay: Repression of TNF-α activation of TNF-RE tkLuc in U2OS cells with ERβ; assay type: cell-based; parameters: expressed in transfected cells; host or cells: U2OS (human osteosarcoma)
T1 sequence (Q92731 whole entry): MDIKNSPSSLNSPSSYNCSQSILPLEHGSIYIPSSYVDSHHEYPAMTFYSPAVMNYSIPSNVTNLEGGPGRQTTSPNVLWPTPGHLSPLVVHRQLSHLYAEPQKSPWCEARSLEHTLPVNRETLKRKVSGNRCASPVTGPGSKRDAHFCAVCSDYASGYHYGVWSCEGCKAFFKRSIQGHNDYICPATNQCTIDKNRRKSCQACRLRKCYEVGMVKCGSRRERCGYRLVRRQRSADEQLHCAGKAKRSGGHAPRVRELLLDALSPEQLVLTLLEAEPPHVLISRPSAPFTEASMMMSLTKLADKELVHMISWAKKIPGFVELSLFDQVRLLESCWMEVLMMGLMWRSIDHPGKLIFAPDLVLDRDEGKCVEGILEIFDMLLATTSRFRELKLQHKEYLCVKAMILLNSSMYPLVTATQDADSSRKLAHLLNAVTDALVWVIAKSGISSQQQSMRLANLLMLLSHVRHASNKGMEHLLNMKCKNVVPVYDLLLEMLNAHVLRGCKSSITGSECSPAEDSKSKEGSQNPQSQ

ERβ [2] = target: T1, ERβ; assay: ERE-tk-Luc luciferase transient transfection assay in U2OS cells with ERβ
Procedure: (§2) The isolated and two purchased (4, 5) anthraquinones, were tested for their ERα and ERβ activities using transient transfection assays in the human U2OS bone cell line with an estrogen response element linked to the luciferase reporter gene (ERE-tkLuc).
(§3) U2OS osteosarcoma cells were cotransfected with a classic ERE upstream of a minimal thymidine kinase (tk) promoter (ERE-tk-Luc) and expression vectors for human ERα or ERβ.

[3] = five years of therapy; cited from earlier work
[4] = women at high risk for breast cancer; cited from earlier work
[5] = test system: MCF-7 breast cancer cells; assay: MCF-7 kidney capsule graft tumor formation in nude mice; assay type: in vivo, CD-1/Nude female mice; conditions: MCF-7 grafts, 28 days, subcutaneous Alzet pump, 2 mg/200 μL for 6, 360 μg/200 μL for estradiol
Procedure: as §1

ERα = target: T2, ERα (Homo sapiens, UniProt P03372); assay: ERE-tk-Luc luciferase transient transfection assay in U2OS cells with ERα; assay type: cell-based; conditions: ERα expression vector
T2 construct: expressed in transfected cells; host or cells: U2OS (human osteosarcoma)
T2 sequence (P03372 1-595): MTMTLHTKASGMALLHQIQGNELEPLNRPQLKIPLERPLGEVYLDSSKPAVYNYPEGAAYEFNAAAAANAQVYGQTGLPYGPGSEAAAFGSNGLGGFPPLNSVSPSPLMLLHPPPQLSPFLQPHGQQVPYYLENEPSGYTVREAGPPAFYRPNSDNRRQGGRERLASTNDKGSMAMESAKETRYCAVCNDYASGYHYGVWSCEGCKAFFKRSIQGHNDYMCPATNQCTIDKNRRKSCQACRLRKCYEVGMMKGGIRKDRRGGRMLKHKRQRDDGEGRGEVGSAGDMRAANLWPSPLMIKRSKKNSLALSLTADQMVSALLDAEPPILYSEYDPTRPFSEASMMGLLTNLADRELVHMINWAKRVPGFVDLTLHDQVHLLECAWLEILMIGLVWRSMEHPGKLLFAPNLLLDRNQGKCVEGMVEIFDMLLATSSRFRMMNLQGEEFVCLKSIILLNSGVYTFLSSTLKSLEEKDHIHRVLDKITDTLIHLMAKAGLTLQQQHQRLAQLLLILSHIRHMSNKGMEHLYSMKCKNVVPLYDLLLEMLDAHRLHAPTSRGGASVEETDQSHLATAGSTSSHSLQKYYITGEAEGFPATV
Procedure: as §2, §3

ERβ [6] = target: T1, ERβ; assay: ER binding curves (ERβ compared with ERα)

For `C[C@]12CC[C@@H]3c4ccc(O)cc4CC[C@H]3[C@@H]1CC[C@@H]2O` [estradiol, reference compound], the “uterine proliferation as compared to control” value (uterine proliferation) was “stimulates uterine proliferation” and the “repression of TNF-α activity on ERβ” value (ERβ [1]; data not shown) was 100%.

With aloe-emodin [compound 2] the “ERβ-activation of ERE-tk-luc in the presence of compound and raloxifene” value (shortened to “ERβ-activation … of compound and raloxifene”) (ERβ [2]) was “attenuated”, the “ERβ-activation of ERE-tk-luc in the presence of compound and tamoxifen” value (“ERβ-activation … of compound and tamoxifen” for short) (ERβ [2]) was “attenuated” and the “repression of TNF-α activation of TNF-RE in the presence of ERβ” value (ERβ [1]) was “produced repression”.

In the case of `CC/C(=C(\c1ccccc1)c1ccc(OCCN(C)C)cc1)c1ccccc1` [tamoxifen], the “reduction of mortality from breast cancer” value [3] is listed as 22%, the “reduction of the risk of recurrences” value [3] is listed as 42% and the “reduction of the risk of primary invasive breast cancer” value [4] is listed as 49%.

In the case of `O=C1c2c(O)c(O)c(O)c(O)c2C(=O)c2c(O)c(O)c(O)c(O)c21` [compound 6, octahydroxyanthraquinone], the “tumor formation / proliferation in kidney capsule grafts as compared to control” value [5] is reported as “does not increase breast cancer tumor formation”, the “tumor formation / proliferation in kidney capsule grafts as compared to control” value ([5]; listed as octahydroxyanthraquinone) is reported as “suppresses tumor proliferation” and the “activation of ERE-tk-Luc in the presence of ERα” value (ERα) is reported as “no effect on ERα”.

In the case of emodin [compound 1], the “ERβ-binding curve as compared to the ERα-binding curve” value (ERβ [6]) is reported as “very similar”, the “ERβ-activation … of compound and raloxifene” value (ERβ [2]; listed as Emodin) is reported as “attenuated” and the “ERβ-activation … of compound and raloxifene” value (ERβ [2]; listed as emodin) is reported as “repressed”. The “ERβ-activation … of compound and tamoxifen” value (ERβ [2]; listed as Emodin) was “attenuated”, the “ERβ-activation … of compound and tamoxifen” value (ERβ [2]; listed as emodin) was “repressed” and the “repression of TNF-α activation of TNF-RE in the presence of ERβ” value (ERβ [1]) was “produced repression”.
